In the supplement of paper PMC11451515:

Test system: SEM cells
Experiment: cell viability relative to DMSO control; higher = less cytotoxic
Conditions: 48 h
Outline: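 Leukemia cells (NOMO1 or SEM, 500 cells/well; P12-Ichikawa, 1000 cells/well) were seeded in 5 μl in 1536-well plates after at least four passages of adaptation to each medium. They received library compounds in DMSO by pin dosing, 11 threefold points from 47 μM to 0.79 nM. Luminescence with CellTiter-Glo One was read after 48 h at 37°C. Viability is stated per plate relative to DMSO wells, with cell-free wells as background.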

[1] = HPLM + 10% dialyzed FBS, 0.000781 µM
[2] = HPLM + 10% dialyzed FBS, 0.00234 µM
[3] = HPLM + 10% dialyzed FBS, 0.00702 µM
[4] = HPLM + 10% dialyzed FBS, 0.0211 µM
[5] = HPLM + 10% dialyzed FBS, 0.0632 µM
[6] = HPLM + 10% dialyzed FBS, 0.19 µM
[7] = HPLM + 10% dialyzed FBS, 0.569 µM
[8] = HPLM + 10% dialyzed FBS, 1.71 µM
[9] = HPLM + 10% dialyzed FBS, 5.12 µM
[10] = HPLM + 10% dialyzed FBS, 15.4 µM
[11] = HPLM + 10% dialyzed FBS, 46.1 µM
[12] = RPMI 5 mM glucose + 10% FBS, 0.000781 µM
[13] = RPMI 5 mM glucose + 10% FBS, 0.00234 µM
[14] = RPMI 5 mM glucose + 10% FBS, 0.00702 µM
[15] = RPMI 5 mM glucose + 10% FBS, 0.0211 µM
[16] = RPMI 5 mM glucose + 10% FBS, 0.0632 µM
[17] = RPMI 5 mM glucose + 10% FBS, 0.19 µM
[18] = RPMI 5 mM glucose + 10% FBS, 0.569 µM
[19] = RPMI 5 mM glucose + 10% FBS, 1.71 µM
[20] = RPMI 5 mM glucose + 10% FBS, 5.12 µM
[21] = RPMI 5 mM glucose + 10% FBS, 15.4 µM
[22] = RPMI 5 mM glucose + 10% FBS, 46.1 µM
[23] = RPMI 5 mM glucose + 10% dialyzed FBS, 0.000781 µM
[24] = RPMI 5 mM glucose + 10% dialyzed FBS, 0.00234 µM
[25] = RPMI 5 mM glucose + 10% dialyzed FBS, 0.00702 µM
[26] = RPMI 5 mM glucose + 10% dialyzed FBS, 0.0211 µM
[27] = RPMI 5 mM glucose + 10% dialyzed FBS, 0.0632 µM
[28] = RPMI 5 mM glucose + 10% dialyzed FBS, 0.19 µM
[29] = RPMI 5 mM glucose + 10% dialyzed FBS, 0.569 µM
[30] = RPMI 5 mM glucose + 10% dialyzed FBS, 1.71 µM
[31] = RPMI 5 mM glucose + 10% dialyzed FBS, 5.12 µM
[32] = RPMI 5 mM glucose + 10% dialyzed FBS, 15.4 µM
[33] = RPMI 5 mM glucose + 10% dialyzed FBS, 46.1 µM

SMILES | cell viability [1] | cell viability [2] | cell viability [3] | cell viability [4] | cell viability [5] | cell viability [6] | cell viability [7] | cell viability [8] | cell viability [9] | cell viability [10] | cell viability [11] | cell viability [12] | cell viability [13] | cell viability [14] | cell viability [15] | cell viability [16] | cell viability [17] | cell viability [18] | cell viability [19] | cell viability [20] | cell viability [21] | cell viability [22] | cell viability [23] | cell viability [24] | cell viability [25] | cell viability [26] | cell viability [27] | cell viability [28] | cell viability [29] | cell viability [30] | cell viability [31] | cell viability [32] | cell viability [33]
C[C@]12CCC(=O)C=C1CC[C@@H]1[C@@H]2[C@@H](O)C[C@@]2(C)[C@H]1CC[C@]2(O)C(=O)CO | 108% | 96.8% | 98.1% | 118% | 104% | 107% | 121% | 121% | 108% | 87.6% | 99.2% | 89.7% | 82.7% | 99.3% | 91.4% | 92.1% | 102% | 94.9% | 97% | 86.1% | 68.2% | 73.4% | 99.2% | 95% | 114% | 102% | 102% | 112% | 96.7% | 94.2% | 92.5% | 70% | 62.7%
O=C(C=CC#Cc1cccc(N[S+](=O)([O-])c2ccccc2)c1)NO | 119% | 103% | 113% | 119% | 122% | 109% | 107% | 87% | 13.1% | 4.27% | 4.02% | 112% | 80.6% | 103% | 111% | 109% | 89.3% | 101% | 84.4% | 10.9% | 4.75% | 4.28% | 105% | 94.8% | 102% | 100% | 120% | 117% | 115% | 80.2% | 7.4% | 5.47% | 5.05%
FC1=CC=C(C=C1)N2/C=C\C=C(C(=O)NC3=CC=C(OC4=C5C=C[NH]C5=NC=C4)C(=C3)F)/C2=O | 92.6% | 101% | 104% | 112% | 106% | 109% | 115% | 107% | 99.9% | 77.3% | 75.4% | 72.6% | 69.9% | 65.1% | 76% | 67.1% | 68.1% | 73% | 71.6% | 60.5% | 46.9% | 40% | 101% | 96.9% | 98.7% | 111% | 119% | 111% | 121% | 102% | 95.7% | 74.8% | 55.4%
CCCCC(=O)O[C@]1(C(=O)CO)[C@H](C)C[C@H]2[C@@H]3CCC4=CC(=O)C=C[C@]4(C)[C@@]3(F)[C@@H](O)C[C@@]21C | 102% | 122% | 111% | 96.2% | 92.6% | 87.1% | 83.4% | 75.2% | 71% | 71.4% | 70.9% | 118% | 124% | 139% | 124% | 91.3% | 98.2% | 84.3% | 73.9% | 76.7% | 70.3% | 67.6% |  |  |  |  |  |  |  |  |  |  | 
N[S+]([O-])(=O)C1=C(Cl)C=C2\N=C/N[S+]([O-])(=O)C2=C1 | 91.1% | 96.5% | 111% | 99% | 91.2% | 59.6% | 123% | 105% | 114% | 148% | 122% | 101% | 104% | 94.3% | 78.1% | 92.5% | 45.3% | 122% | 119% | 104% | 107% | 123% | 109% | 98.7% | 103% | 80.2% | 101% | 56.3% | 134% | 109% | 109% | 123% | 133%
O=C1NC(=O)/C(=C/c2ccc3nccc(-c4ccncc4)c3c2)S1 | 108% | 104% | 105% | 107% | 95.5% | 74.5% | 43.9% | 49.5% | 19.7% | 13.7% | 1.01% | 115% | 116% | 134% | 116% | 108% | 86.1% | 55.4% | 48.2% | 23.9% | 7.87% | 1.09% | 105% | 103% | 101% | 111% | 96.7% | 67.8% | 46.9% | 43.4% | 24.3% | 12.8% | 0.853%
COC(=O)C[C@](O)(CCCC(C)(C)O)C(=O)O[C@@H]1C(OC)=CC23CCCN2CCc2cc4c(cc2[C@H]13)OCO4 (some centres not stated) | 106% | 103% | 108% | 108% | 105% | 120% | 119% | 109% | 94.5% | 92.5% | 102% | 98.4% | 101% | 106% | 98.1% | 111% | 111% | 95.9% | 89.6% | 84.3% | 96.9% | 93.3% | 104% | 100% | 104% | 106% | 97.2% | 103% | 105% | 97.5% | 99.7% | 99.9% | 102%
COc1ccc([S+](=O)([O-])N(C(C)=O)c2ccccc2/C=C/c2cc[n+]([O-])cc2)cc1 | 124% | 122% | 133% | 141% | 125% | 125% | 124% | 55.4% | 26.1% | 26.5% | 23% | 122% | 131% | 115% | 126% | 97.1% | 103% | 111% | 39.1% | 20.3% | 18.4% | 13.4% |  |  |  |  |  |  |  |  |  |  | 
